Measurements as given in US20140228377A1, “METHYLPIPERIDINE DERIVATIVE” (TAISHO PHARMACEUTICAL CO., LTD., priority 2011, published 2014).

How the values were obtained:
[1] = target: T1, human orexin-1 receptor (hOX1R) (Homo sapiens, UniProt O43613); assay: Orexin antagonistic activity assay (intracellular Ca2+, FDSS) in CHO cells expressing hOX1R; format: cell-based; details: CHO cells expressing hOX1R; ligand peptide 300 pM; Fluo-3 maximum fluorescence intensity; read-out: IC50 value OX1
T1 construct: expressed in transfected cells; host or cells: Chinese hamster ovary (CHO) cells
T1 sequence (O43613 1-425): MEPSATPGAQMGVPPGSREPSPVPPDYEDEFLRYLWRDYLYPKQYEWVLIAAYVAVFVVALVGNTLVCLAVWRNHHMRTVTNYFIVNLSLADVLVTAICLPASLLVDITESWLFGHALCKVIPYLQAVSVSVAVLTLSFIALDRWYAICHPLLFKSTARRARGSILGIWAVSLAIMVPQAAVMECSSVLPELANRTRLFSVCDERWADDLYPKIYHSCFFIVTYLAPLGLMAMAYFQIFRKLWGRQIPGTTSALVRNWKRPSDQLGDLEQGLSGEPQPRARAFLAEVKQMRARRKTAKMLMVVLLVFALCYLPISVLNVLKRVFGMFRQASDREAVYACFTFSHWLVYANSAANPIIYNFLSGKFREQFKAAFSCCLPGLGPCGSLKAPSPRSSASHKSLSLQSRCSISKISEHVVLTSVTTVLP
Protocol: (§1) The antagonistic activity of each test compound against human orexin-1 receptor (hOX1R) and orexin-2 receptor (hOX2R) was assayed by a modification of a method described in the literature (Toshikatsu Okumura et al., Biochemical and Biophysical Research Communications 280, 976-981, 2001). Chinese hamster ovary (CHO) cells forced to express hOX1R or hOX2R were inoculated at a density of 20,000 cells/well to a 96-well Black clear bottom plate (Nunc) and cultured at 37° C. for 16 hours under 5% CO2 conditions in a Ham's F-12 medium containing 0.1 mM MEM nonessential amino acids, 0.5 mg/ml G418, and 10% fetal bovine serum (all from Invitrogen Corp.). After removal of the medium, 100 μL of a buffer solution for assay (25 mM HEPES (Dojindo Laboratories), Hanks' balanced salt solution (Invitrogen Corp.), 0.1% bovine serum albumin, 2.5 mM probenecid, and 200 μg/ml Amaranth (all from Sigma-Aldrich Corp.), pH 7.4) containing 0.5 μM Fluo-3 AM ester (Dojindo Laboratories) was added to the cells, which were then incubated at 37° C. for 60 minutes under 5% CO2 conditions. After removal of the buffer solution for assay containing Fluo-3 AM ester, each test compound was dissolved at a concentration of 10 mM in dimethyl sulfoxide and diluted with a buffer solution for assay. Then, 150 μL of the solution was added to the cells, which were then incubated for 30 minutes.
(§2) A ligand peptide (Pyr-[…]NH2; Peptide Institute, Inc.) derived from human orexin-A by the substitution of two amino acids was diluted with a buffer solution for assay to final concentrations of 300 pM for hOX1R and 3 nM for hOX2R. Reaction was initiated by the addition of 50 μL of this ligand solution. The fluorescence intensity of the reaction was measured in each well every second for 3 minutes using Functional Drug Screening System (FDSS; manufactured by Hamamatsu Photonics K.K.), and the maximum fluorescence intensity was used as an index for intracellular Ca^2+ concentration to determine antagonistic activity. The antagonistic activity of the test compound was calculated with fluorescence intensity from a well supplemented with only a diluting buffer solution as 100% and fluorescence intensity from a well supplemented with a buffer solution free from the ligand and the compound as 0%. The 50% inhibitory concentration (IC50 value) was determined on the basis of fluorescence intensity derived from the test compound added at varying concentrations.

[2] = target: T2, orexin-2 receptor (hOX2R) (Homo sapiens, UniProt O43614); assay: Orexin antagonistic activity assay (intracellular Ca2+, FDSS) in CHO cells expressing hOX2R; format: cell-based; details: CHO cells expressing hOX2R; ligand peptide 3 nM; Fluo-3 maximum fluorescence intensity; read-out: IC50 value OX2
T2 construct: expressed in transfected cells; host or cells: Chinese hamster ovary (CHO) cells
T2 sequence (O43614 1-444): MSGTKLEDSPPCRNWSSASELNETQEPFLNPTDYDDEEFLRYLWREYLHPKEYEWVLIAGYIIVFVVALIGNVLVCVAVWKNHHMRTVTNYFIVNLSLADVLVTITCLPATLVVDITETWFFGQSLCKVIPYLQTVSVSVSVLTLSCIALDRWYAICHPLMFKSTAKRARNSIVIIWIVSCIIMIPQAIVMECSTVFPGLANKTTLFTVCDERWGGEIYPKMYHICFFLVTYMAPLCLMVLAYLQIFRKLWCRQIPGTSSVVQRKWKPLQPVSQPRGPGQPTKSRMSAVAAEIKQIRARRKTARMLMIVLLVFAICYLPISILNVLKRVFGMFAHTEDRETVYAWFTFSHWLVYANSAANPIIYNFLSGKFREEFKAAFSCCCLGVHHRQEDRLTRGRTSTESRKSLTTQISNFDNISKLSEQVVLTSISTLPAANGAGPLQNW
Protocol: as §1, §2

Row | SMILES | IC50 [1] [nM] | IC50 [2] [nM]
1 | C[C@@H]1CC[C@@H](c2nc3cc(Cl)ccc3o2)CN1C(=O)c1cc(Br)ccc1-n1nccn1 [Example 22, [5-Bromo-2-(2H-1,2,3-triazol-2-yl)phenyyl][(2R,5R)-5-(5-chloro-1,3-benzoxazol-2-yl)-2-methylpiperidin-1-yl]methanone] | 31.9 | 7.8
2 | Cc1ccc(-c2ncccn2)c(C(=O)N2C[C@H](c3nc4cc(F)c(F)cc4o3)CC[C@H]2C)c1 [Example 51, [(2R,5R)-5-(5,6-Difluoro-1,3-benzoxazol-2-yl)-2-methylpiperidin-1-yl][5-methyl-2-(pyrimidin-2-yl)phenyl]methanone] | 13.5 | 7.3
3 | Cc1ccc(-n2nccn2)c(C(=O)N2C[C@H](c3nc4cc(F)c(F)cc4o3)CC[C@H]2C)c1 [Example 50, [(2R,5R)-5-(5,6-Difluoro-1,3-benzoxazol-2-yl)-2-methylpiperidin-1-yl][5-methyl-2-(2H-1,2,3-triazol-2-yl)phenyl]methanone] | 9.8 | 8.6
4 | C[C@@H]1CC[C@@H](c2nc3cc(F)ccc3o2)CN1C(=O)c1cc(F)ccc1-n1nccn1 [Example 29, [(2R,5R)-5-(5-Fluoro-1,3-benzoxazol-2-yl)-2-methylpiperidin-1-yl][5-fluoro-2-(2H-1,2,3-triazol-2-yl)phenyl]methanone] | 111 | 6
5 | Cc1ccc(-c2ncccn2)c(C(=O)N2C[C@H](c3nc4cc(C#N)ccc4o3)CC[C@H]2C)c1 [Example 57, 2-{(3R,6R)-6-Methyl-1-[5-methyl-2-(pyrimidin-2-yl)benzoyl]piperidin-3-yl}-1,3-benzoxazole-5-carbonitrile] | 561 | 20.1
6 | Cc1ccc(-n2nccn2)c(C(=O)N2C[C@H](c3nc4c(F)cccc4o3)CC[C@H]2C)c1 [Example 66, [(2R,5R)-5-(4-Fluoro-1,3-benzoxazol-2-yl)-2-methylpiperidin-1-yl][5-methyl-2-(2H-1,2,3-triazol-2-yl)phenyl]methanone] | 36.5 | 20.4
7 | C[C@@H]1CC[C@@H](c2nc3cc(F)ccc3o2)CN1C(=O)c1cc(Cl)ccc1-n1nccn1 [Example 30, [5-Chloro-2-(2H-1,2,3-triazol-2-yl)phenyl][(2R,5R)-5-(5-fluoro-1,3-benzoxazol-2-yl)-2-methylpiperidin-1-yl]methanone] | 74.4 | 3.7
8 | Cc1ccc(-c2ncccn2)c(C(=O)N2C[C@H](c3nc4cc(OC(F)(F)F)ccc4o3)CC[C@H]2C)c1 [Example 41, [5-Methyl-2-(pyrimidin-2-yl)phenyl]{(2R,5R)-2-methyl-5-[5-(trifluoromethoxy)-1,3-benzoxazol-2-yl]piperidin-1-yl}methanone] | 177 | 45.1
9 | C[C@@H]1CC[C@@H](c2nc3cc(F)ccc3o2)CN1C(=O)c1ccccc1-c1ncccn1 [Example 31, [(2R,5R)-5-(5-Fluoro-1,3-benzoxazol-2-yl)-2-methylpiperidin-1-yl][2-(pyrimidin-2-yl)phenyl]methanone] | 68.1 | 29.7
10 | C[C@@H]1CC[C@@H](c2nc3cc(Cl)ccc3o2)CN1C(=O)c1cc(C#N)ccc1-n1nccn1 [Example 21] | 211 | 155
11 | C[C@@H]1CC[C@@H](c2nc3ccc(F)cc3o2)CN1C(=O)c1cc(Cl)ccc1-c1ncccn1 [Example 49, [5-Chloro-2-(pyrimidin-2-yl)phenyl][(2R,5R)-5-(6-fluoro-1,3-benzoxazol-2-yl)-2-methylpiperidin-1-yl]methanone] | 103 | 93.1
12 | C[C@@H]1CC[C@@H](c2nc3cc(Cl)ccc3o2)CN1C(=O)c1cc(F)ccc1-n1nccn1 (single isomer, unassigned) [Example 2, [(2R*,5R*)-5-(5-Chloro-1,3-benzoxazol-2-yl)-2-methylpiperidin-1-yl][5-fluoro-2-(2H-1,2,3-triazol-2-yl)phenyl]methanone] | 19.8 | 8.7
13 | C[C@@H]1CC[C@@H](c2nc3cc(Cl)ccc3o2)CN1C(=O)c1c(F)cccc1-n1nccn1 [Example 16, [(2R5R)-5-(5-Chloro-1,3-benzoxazol-2-yl)-2-methylpiperidin-1-yl][2-fluoro-6-(2H-1,2,3-triazol-2-yl)phenyl]methanone] | 25.6 | 3.6
14 | Cc1ccc(-n2nccn2)c(C(=O)N2C[C@H](c3nc4cc(F)c(F)cc4o3)CC[C@H]2C)n1 [Example 54, [(2R,5R)-5-(5,6-Difluoro-1,3-benzoxazol-2-yl)-2-methylpiperidin-1-yl][6-methyl-3-(2H-1,2,3-triazol-2-yl)pyridin-2-yl]methanone] | 98.7 | 52
15 | C[C@@H]1CC[C@@H](c2nc3cc(F)ccc3o2)CN1C(=O)c1ccc(F)cc1-n1nccn1 [Example 34, [(2R,5R)-5-(5-Fluoro-1,3-benzoxazol-2-yl)-2-methylpiperidin-1-yl][4-fluoro-2-(2H-1,2,3-triazol-2-yl)phenyl]methanone] | 212 | 8.4
16 | Cc1ccc(-c2ncccn2)c(C(=O)N2C[C@H](c3nc4c(F)cccc4o3)CC[C@H]2C)c1 [Example 67, [(2R,5R)-5-(4-Fluoro-1,3-benzoxazol-2-yl)-2-methylpiperidin-1-yl][5-methyl-2-(pyrimidin-2-yl)phenyl]methanone] | 27.7 | 25.9
17 | Cc1ccc(-c2ncccn2)c(C(=O)N2C[C@H](c3nc4c(F)cc(F)cc4o3)CC[C@H]2C)c1 [Example 61, [(2R,5R)-5-(4,6-Difluoro-1,3-benzoxazol-2-yl)-2-methylpiperidin-1-yl][5-methyl-2-(pyrimidin-2-yl)phenyl]methanone] | 81.3 | 44.2
18 | C[C@@H]1CC[C@@H](c2nc3c(Cl)cccc3o2)CN1C(=O)c1cc(F)ccc1-c1ncccn1 [Example 70, [(2R,5R)-5-(4-Chloro-1,3-benzoxazol-2-yl)-2-methylpiperidin-1-yl][5-fluoro-2-(pyrimidin-2-yl)phenyl]methanone] | 12.3 | 16.2
19 | COc1ccc(-n2nccn2)c(C(=O)N2C[C@H](c3nc4cc(Cl)ccc4o3)CC[C@H]2C)c1 [Example 25, [(2R,5R)-5-(5-Chloro-1,3-benzoxazol-2-yl)-2-methylpiperidin-1-yl][5-methoxy-2-(2H-1,2,3-triazol-2-yl)phenyl]methanone] | 387 | 66
20 | COc1cnc(-c2ccc(F)cc2C(=O)N2C[C@H](c3nc4cc(Cl)ccc4o3)CC[C@H]2C)nc1 [Example 24, [(2R,5R)-5-(5-Chloro-1,3-benzoxazol-2-yl)-2-methylpiperidin-1-yl][5-fluoro-2-(5-methoxypyrimidin-2-yl)phenyl]methanone] | 99.2 | 8.5
21 | Cc1ccc(-n2nccn2)c(C(=O)N2C[C@H](c3nc4cccc(F)c4o3)CC[C@H]2C)c1 [Example 65, [(2R,5R)-5-(7-Fluoro-1,3-benzoxazol-2-yl)-2-methylpiperidin-1-yl][5-methyl-2-(2H-1,2,3-triazol-2-yl)phenyl]methanone] | 8.6 | 6.6
